Here are results for 21 compounds from patent US20240366598A1, “GLUCOSE-DEPENDENT INSULINOTROPIC POLYPEPTIDE RECEPTOR ANTAGONISTS AND USES THEREOF” (Pfizer Inc., priority 2023, published 2024).

Structures can show the parent of a compound that is named as a salt.

As usually defined, the IC50 is the concentration that gives 50% inhibition.

The assay concerns the target T1, human Glucose-dependent Insulinotropic Polypeptide Receptor (hGIPR) (Homo sapiens, UniProt P48546).
T1 sequence (P48546 22-466): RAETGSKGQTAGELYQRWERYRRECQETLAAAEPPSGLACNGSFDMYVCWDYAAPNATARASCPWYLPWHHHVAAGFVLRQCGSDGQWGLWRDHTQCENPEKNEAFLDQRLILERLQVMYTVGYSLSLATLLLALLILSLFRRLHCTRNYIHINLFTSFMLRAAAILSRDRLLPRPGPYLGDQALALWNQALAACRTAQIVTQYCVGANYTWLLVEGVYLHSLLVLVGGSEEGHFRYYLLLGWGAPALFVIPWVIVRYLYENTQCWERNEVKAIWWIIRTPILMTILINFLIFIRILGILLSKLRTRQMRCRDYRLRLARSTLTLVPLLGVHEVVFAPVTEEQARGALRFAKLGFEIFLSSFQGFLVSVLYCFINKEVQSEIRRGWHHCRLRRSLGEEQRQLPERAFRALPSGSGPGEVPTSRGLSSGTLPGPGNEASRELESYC
The experiment in a line: Functional in vitro GIPR antagonist potency assay (cAMP HTRF, CHO-K1 cells stably expressing hGIPR, hGIP stimulation at about EC80). Format: cell-based. The settings on record: geometric mean, hGIP at estimated EC80, examples marked ^2: overall geometric mean of multiple forms (including salts) tested. As for the experimental part: Example AA. Functional In Vitro GIPR Antagonist Potency Assay
The functional in vitro antagonist potency for test compounds was determined by monitoring intracellular cyclic adenosine monophosphate (cAMP) levels in Chinese hamster ovary (CHO)—K1 cells stably expressing the human Glucose-dependent Insulinotropic Polypeptide Receptor (hGIPR). Following agonist activation, hGIPR associates with the G-protein complex causing the Gαs subunit to exchange bound guanosine diphosphate (GDP) for guanosine triphosphate (GTP), followed by dissociation of the Gαs-GTP complex. The activated Gas subunit can couple to downstream effectors to regulate the levels of second messengers or cAMP within the cell. Thereby, determination of intracellular cAMP levels allows for pharmacological characterization. Intracellular cAMP levels are quantitated using a homogenous assay utilizing the Homogeneous Time Resolved Fluorescence (HTRF) technology from Perkin Elmer. […] The two entities compete for binding to a monoclonal anti-cAMP antibody labeled with cryptate. The specific signal is inversely proportional to the concentration of cAMP in the cells.
Test compounds were solubilized to a concentration of 30 mM in 100% dimethyl sulfoxide (DMSO). An 11-point dilution series using 1 in 3.162-fold serial dilutions was created in 100% DMSO with a top concentration of 8 mM. The serially diluted compound was spotted with an Echo Acoustic liquid handler (Beckman Coulter) into a 384-well assay plate (Corning, Cat No. 3824) at 50 nL/well with duplicate points at each concentration, at a 200× final assay concentration (FAC). The final compound concentration range in the assay was 40 μM to […], with a final DMSO concentration of 0.5%.
Frozen assay-ready vials (at 1×10^7 cells/vial) of CHO-K1 cells stably expressing the Gs-coupled human GIPR receptor (Eurofins, DiscoverX, Cat No. 95-0146C2) were thawed, counted, and resuspended in assay buffer consisting of Hank's Balanced Salt Solution (HBSS, Lonza Cat No. 10-527) containing 20 mM (4-(2-hydroxyethyl)-1-piperazineethanesulfonic acid (HEPES, Lonza, Cat No. 17-737E), 0.1% bovine serum albumin (BSA, Sigma, Cat No. A7979), and 200 μM 3-isobutyl-1-methylxanthine (IBMX, Sigma, Cat No. 15879) at a density of 4×10^5 cells/mL. Cells were added to assay plate (5 μL/well of 4×10^5 cells/mL stock for 2,000 cells/well final) containing 50 nL of 200× FAC test compound, and incubated at 37° C. (95% O2: 5% CO2) for 2 hours, with micro-clime lids (Labcyte, Cat No. LLS-0310). Following the 2-hour cell and compound incubation, a stimulation mix comprised of hGIPR agonist human glucose-dependent insulinotropic polypeptide (hGIP, full length, Sigma Cat No. G2269) in assay buffer/0.1% DMSO was added to the assay plate (5 μL/well) at an estimated EC80 FAC (based on previous hGIP agonist curves) and incubated for another 30 minutes with micro-clime lids at 37° C. (95% O2: 5% CO2), after which intracellular cAMP levels were quantified as per Perkin Elmer's protocol (5 μL of d2 and then 5 μL cryptate, incubated for 1 hour at room temperature). Emission spectra of samples were measured on a Pherastar plate reader (BMG Labtech Inc) using a HTRF protocol (excitation, 320 nm; emission, 665 nm/620 nm).
(95% O2: 5% CO2), with a micro-clime lid. Following the 2-hour cell and DMSO incubation, a hGIP concentration response curve at 2× FAC (12-point curve using 1 in 3 serial dilutions, with triplicate points at each concentration, 100 nM final top concentration) in assay buffer/1% DMSO was added (5 μL/well) and incubated for a further 30 minutes with a micro-clime lid at 37° C. (95% O2: 5% CO2), after which intracellular cAMP levels were quantified and samples measured as described previously. Experiments passed quality control if the agonist concentration used for stimulation fell between the on-the-day EC50-EC90. […]
`O=C(O)[C@@H]1CCc2nc(NC(=O)[C@H]3CCCN3C(=O)Nc3ccc(C(F)(F)F)c(F)c3)ccc2C1` (single isomer, unassigned) [Example 221, 2-[(1-{[3-fluoro-4-(trifluoromethyl)phenyl]carbamoyl}-D-prolyl)amino]-5,6,7,8-tetrahydroquinoline-6-carboxylic acid, DIAST-2]: the half-maximal inhibitory concentration (IC50) was 11 nM.

For `Cc1cc(NC(=O)N2CCC[C@@H]2C(=O)Nc2ccc3c(n2)CC[C@@H](C(=O)O)C3)ccc1C(F)(F)F` (single isomer, unassigned) [Example 226, 2-[(1-{[3-methyl-4-(trifluoromethyl)phenyl]carbamoyl}-D-prolyl)amino]-5,6,7,8-tetrahydroquinoline-6-carboxylic acid, DIAST-1], the IC50 is 81 nM.

Regarding `Cc1cc(NC(=O)N2CCC[C@@H]2C(=O)Nc2ccc3c(n2)CC[C@@H](C(=O)O)C3)ccc1C(F)(F)F` (single isomer, unassigned) [Example 227, 2-[(1-{[3-methyl-4-(trifluoromethyl)phenyl]carbamoyl}-D-prolyl)amino]-5,6,7,8-tetrahydroquinoline-6-carboxylic acid, DIAST-2], the IC50 was 53 nM.

For the compound `CC(C)c1ccc(NC(=O)N2CCC[C@@H]2C(=O)Nc2ccc3c(n2)CC[C@@H](C(=O)O)C3)cc1F` (single isomer, unassigned) [Example 228, 2-[(1-{[3-fluoro-4-(propan-2-yl)phenyl]carbamoyl}-D-prolyl)amino]-5,6,7,8-tetrahydroquinoline-6-carboxylic acid, trifluoroacetate salt, DIAST-1], the IC50 was 36 nM.

In the case of `CC(C)c1ccc(NC(=O)N2CCC[C@@H]2C(=O)Nc2ccc3c(n2)CC[C@@H](C(=O)O)C3)cc1F` (single isomer, unassigned) [Example 229, 2-[(1-{[3-fluoro-4-(propan-2-yl)phenyl]carbamoyl}-D-prolyl)amino]-5,6,7,8-tetrahydroquinoline-6-carboxylic acid, trifluoroacetate salt, DIAST-2], the IC50 was 11 nM.

Turning to `CC(C)c1ccc(NC(=O)N2CCC[C@@H]2C(=O)Nc2ccc(-c3ccc(C(=O)O)nc3)cc2)cc1` [Example 1, Ammonium 5-{4-[(1-{[4-(propan-2-yl)phenyl]carbamoyl}-D-prolyl)amino]phenyl}pyridine-2-carboxylate], the IC50 was 16 nM.

In the case of `CC(C)c1ccc(NC(=O)N2CCC[C@@H]2C(=O)Nc2ccc(-c3ccc(C(=O)O)cn3)cc2)cc1` [Example 2, 6-{4-[(1-{[4-(Propan-2-yl)phenyl]carbamoyl}-D-prolyl)amino]phenyl}pyridine-3-carboxylic acid], the IC50 is 74 nM.

As for `CC(C)c1ccc(NC(=O)N2CCC[C@@H]2C(=O)Nc2ccc(-c3cccc(C(=O)O)c3)cc2)cc1` [Example 3, 4′-[(1-{[4-(Propan-2-yl)phenyl]carbamoyl}-D-prolyl)amino][1,1′-biphenyl]-3-carboxylic acid], the IC50 was 17 nM.

In the case of `CC(C)c1ccc(NC(=O)N2CCC[C@@H]2C(=O)Nc2ccc(-c3ccc(C(=O)O)cc3)cc2)cc1` [Example 4, 4′-[(1-{[4-(Propan-2-yl)phenyl]carbamoyl}-D-prolyl)amino][1,1′-biphenyl]-4-carboxylic acid], the IC50 was 4.1 nM.

`CC(C)c1ccc(NC(=O)N2CCC[C@@H]2C(=O)Nc2ccc(-c3ccc(C(=O)O)cc3)cn2)cc1` [Example 5, Ammonium 4-{6-[(1-{[4-(propan-2-yl)phenyl]carbamoyl}-D-prolyl)amino]pyridin-3-yl}benzoate]: the half-inhibitory concentration (IC50) is 9.1 nM.

Turning to `CC(C)c1ccc(NC(=O)N2CCC[C@@H]2C(=O)Nc2ccc(-c3ccc(C(=O)O)cc3)cc2F)cc1` [Example 6, 3′-Fluoro-4′-[(1-{[4-(propan-2-yl)phenyl]carbamoyl}-D-prolyl)amino][1,1′-biphenyl]-4-carboxylic acid], the IC50 was 6.5 nM.

As for `O=C(O)c1ccc(-c2ccc(NC(=O)[C@H]3CCCN3C(=O)Nc3ccc(C4CC4)cc3)cc2)cc1` [Example 7, Ammonium 4′-({1-[(4-cyclopropylphenyl)carbamoyl]-D-prolyl}amino)[1,1′-biphenyl]-4-carboxylate], the IC50 was 8.1 nM.

Turning to `CC(C)c1ccc(NC(=O)N2CCC[C@@H]2C(=O)Nc2ccc(-c3ncc(C(=O)O)cn3)cc2)cc1` [Example 8, ammonium 2-{4-[(1-{[4-(propan-2-yl)phenyl]carbamoyl}-D-prolyl)amino]phenyl}pyrimidine-5-carboxylate], the IC50 is 150 nM.

As to `CC(C)c1ccc(NC(=O)N2CCC[C@@H]2C(=O)Nc2ccc(-c3cccc(C(=O)O)n3)cc2)cc1` [Example 9, ammonium 6-{4-[(1-{[4-(propan-2-yl)phenyl]carbamoyl}-D-prolyl)amino]phenyl}pyridine-2-carboxylate], the IC50 was 130 nM.

As for `CC(C)c1ccc(NC(=O)N2CCC[C@@H]2C(=O)Nc2ccc3cc(C(=O)O)ccc3c2)cc1` [Example 10, 6-[(1-{[4-(propan-2-yl)phenyl]carbamoyl}-D-prolyl)amino]naphthalene-2-carboxylic acid], the IC50 was 67 nM.

Take `Cc1cc(NC(=O)[C@H]2CCCN2C(=O)Nc2ccc(C(C)C)cc2)cc2ccc(C(=O)O)nc12` [Example 11, 8-methyl-6-[(1-{[4-(propan-2-yl)phenyl]carbamoyl}-D-prolyl)amino]quinoline-2-carboxylic acid, trifluoroacetate salt]: the IC50 is 180 nM.

For `C=C(C)c1ccc(NC(=O)N2CCC[C@@H]2C(=O)Nc2ccc(-c3ccc(C(=O)O)cc3)cc2)cc1` [Example 12, 4′-[(1-{[4-(prop-1-en-2-yl)phenyl]carbamoyl}-D-prolyl)amino][1,1′-biphenyl]-4-carboxylic acid], the concentration for half-maximal inhibition (IC50) was 10 nM.

For the compound `O=C(O)c1ccc(-c2ccc(NC(=O)[C@H]3CCCN3C(=O)Nc3ccc(Cl)cc3)cc2)cc1` [Example 13, ammonium 4′-({1-[(4-chlorophenyl)carbamoyl]-D-prolyl}amino)[1,1′-biphenyl]-4-carboxylate], the IC50 is 12 nM.

As to `CC(C)c1ccc(NC(=O)N2CCC[C@@H]2C(=O)Nc2ccc(-c3ccnc(C(=O)O)c3)cc2)cc1` [Example 14, ammonium 4-{4-[(1-{[4-(propan-2-yl)phenyl]carbamoyl}-D-prolyl)amino]phenyl}pyridine-2-carboxylate], the concentration for half-maximal inhibition (IC50) was 88 nM.

As to `CC(C)c1ccc(NC(=O)N2CCC[C@@H]2C(=O)Nc2c(F)cc(-c3ccc(C(=O)O)cc3)cc2F)cc1` [Example 15, 3′,5′-difluoro-4′-[(1-{[4-(propan-2-yl)phenyl]carbamoyl}-D-prolyl)amino][1,1′-biphenyl]-4-carboxylic acid], the IC50 is 8.1 nM.

Consider `O=C(O)c1ccc(-c2ccc(NC(=O)[C@H]3CCCN3C(=O)Nc3ccc(C(F)(F)F)cc3)cc2)cc1` [Example 16, Ammonium 4′-[(1-{[4-(trifluoromethyl)phenyl]carbamoyl}-D-prolyl)amino][1,1′-biphenyl]-4-carboxylate], for which the IC50 was 3.7 nM.
